# From PMC7574383 (Epigenetics, 2020)
# Legend:
# [1] = tested on: HepG2 cells; assay: Senescence-associated β-galactosidase assay, HepG2; format: cell-based, human; conditions: HepG2, DOXO 0.5 μM, 48 h
# [2] = tested on: H9c2 cells; assay: Senescence-associated β-galactosidase assay, H9c2; format: cell-based, rat; conditions: H9c2, DOXO 0.5 μM, 48 h
# [3] = tested on: Caco-2 cell monolayer; assay: Caco-2 permeability assay; format: in vitro ADME, human; conditions: Caco-2 monolayer, compounds at 100 μg/ml, after three hours of treatment
SMILES,SA β-gal-positive cells induced [1],SA β-gal-positive cells induced [2],Permeability (%) [3]
"COc1cccc2c1C(=O)c1c(O)c3c(c(O)c1C2=O)C[C@@](O)(C(=O)CO)C[C@@H]3O[C@H]1C[C@H](N)[C@H](O)[C@H](C)O1 [DOXO, doxorubicin]",about 60%,~35%,
CC(C)NCC(O)COc1cccc2ccccc12 (stereo not drawn) [Propranolol],,,82.4%
